Data set [1] deals with T1, M2 (Rattus norvegicus, UniProt P10980).
T1 construct: from tissue; host or cells: heart of the living rat (in vivo)
T1 sequence (P10980 1-466): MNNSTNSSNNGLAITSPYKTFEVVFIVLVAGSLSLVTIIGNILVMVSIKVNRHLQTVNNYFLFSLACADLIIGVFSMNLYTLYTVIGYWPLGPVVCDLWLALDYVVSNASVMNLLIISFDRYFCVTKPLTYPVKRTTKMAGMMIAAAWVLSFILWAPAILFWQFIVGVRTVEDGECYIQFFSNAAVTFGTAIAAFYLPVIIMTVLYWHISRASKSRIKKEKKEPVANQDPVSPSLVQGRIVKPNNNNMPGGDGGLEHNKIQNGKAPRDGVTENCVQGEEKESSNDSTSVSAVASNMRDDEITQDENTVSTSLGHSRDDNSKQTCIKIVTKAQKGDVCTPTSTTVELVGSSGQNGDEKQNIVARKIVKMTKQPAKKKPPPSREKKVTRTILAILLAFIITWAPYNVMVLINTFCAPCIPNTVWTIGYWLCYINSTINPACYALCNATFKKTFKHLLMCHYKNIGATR
The experiment in a line: M1/M2 selectivity in the rat: reduction of vagal bradycardia (M2). The data set is classed as in vivo, rat (male THOM). The note with it: iv, 5 min, i.v., 5 min before right vagus stimulation, read-out: -log ED50, Heart (vagal bradycardia, M2) (converted). As for the experimental part:
The method used was described by Hammer and Giachetti (Life Sciences 31, 2991-2998 (1982)). 5 minutes after the intravenous injection of increasing doses of the substance, either the right vagus was electrically stimulated (frequency: 25 Hz; pulse width: 2 ms; duration of stimulus: 30s; voltage: supramaximal) or 0.3 mg/kg of McN-A-343 were intravenously injected into male THOM rats. The bradycardia caused by vagus stimulation and the rise in blood pressure caused by McN-A-343 were determined. The dosage of the substances which reduced either the vagal bradycardia (M2) or the rise in blood pressure (M1) by 50% was determined graphically. For the results see Table II.

In data set [2] the target is T2, muscarinic receptors (submandibular gland) (Rattus norvegicus, UniProt P08483).
T2 construct: After the heart and submandibular gland and cerebral cortex had been removed; from tissue; host or cells: homogenate of rat submandibular gland
As to the kind of experiment: Binding to muscarinic receptors, 3H-NMS displacement, submandibular gland. Further details: species or system rat (male Sprague-Dawley). To be noted: for IC50: 0.3 nM 3H-NMS, 30° C., 45 min, pH 7.4, read-out: IC50 receptor binding test, Submandibular gland (SM); for Selectivity factor [drawing 24]: head is a drawing, values equal IC50 SM / IC50 H. As for the experimental part:
(§1) The organs were donated by male Sprague-Dawley rats weighing 180-220 g After the heart and submandibular gland and cerebral cortex had been removed, all other steps were carried out in ice-cold Hepes HCl buffer (pH 7.4; 100 millimolar NaCl, 10 millimolar MgCl2). The whole heart was cut up with scissors. All the organs were then homogenised in a Potter apparatus.
(§2) For the binding test the homogenised organs were diluted as follows:
(§3) The homogenised organs were incubated at a given concentration of the radioligand and at a series of concentrations of the non-radioactive test substances in an Eppendorf centrifuge tube at 30° C. Incubation lasted 45 minutes. The radioligand used was 0.3 nanomolar ^3 H-N-methylscopolamine (^3 H-NMS). Incubation was ended by the addition of ice-cold buffer followed by vacuum filtration. The filters were rinsed with cold buffer and their radioactivity was determined. This represents the sum of specific and non-specific binding of ^3 H-NMS. The proportion of non-specific binding was defined as the radioactivity which was bound in the presence of 1 micromolar quinuclidinylbenzylate. Each measurement was taken four times. The IC50 values of the non-labelledtest substances were determined graphically. They represent that concentration of test substance at which the specific binding of ^3 H-NMS to the muscarinic receptors in the various organs was inhibited by 50%.

Data set [3] deals with acetylcholine effect on bladder. As to the kind of experiment: Inhibition of the effect of acetylcholine on the bladder in guinea pigs. The data set is classed as in vivo. To be noted: Cavia porcellus, iv, 5 min; guinea pig, acetylcholine 10 microgram/kg i.v. and i.a., 5 min after substance; read-out: -log ED50, Bladder (converted). The procedure:
(§4) 5 minutes after the administration of the test substance, 10 microgram/kg of acetylcholine were simultaneously injected intravenously and intraarterially into anaesthetised guinea pigs. The heart rate was recorded directly by extracorporeal derivation of the ECG, the expiration resistance according to Konzett-Robler and contraction of the exposed bladder. In order to determine the inhibition of the acetylcholine activity on the organs under investigation, dosage/activity curves were recorded and from them -log ED50 values were determined.

For data set [4], the system named is acetylcholine effect on bronchi. As to the kind of experiment: Inhibition of the effect of acetylcholine on the bronchi in guinea pigs. The data set is classed as in vivo. The note with it: Cavia porcellus, iv, 5 min; guinea pig, acetylcholine 10 microgram/kg i.v. and i.a., 5 min after substance; read-out: -log ED50, Bronchi (converted). As for the experimental part: as §4

Data set [5] addresses muscarinic receptors (cerebral cortex). The experiment in a line: Binding to muscarinic receptors, 3H-NMS displacement, cerebral cortex. Further details: species or system rat (male Sprague-Dawley). To be noted: for IC50: 0.3 nM 3H-NMS, 30° C., 45 min, pH 7.4, read-out: IC50 receptor binding test, Cortex (C); for Selectivity factor [drawing 25]: head is a drawing, values equal IC50 C / IC50 H. The procedure: as §1, §2, §3

Data set [6] deals with T3, M1 (Rattus norvegicus, UniProt P08482).
T3 construct: from tissue; host or cells: living rat (in vivo; sympathetic ganglia by own knowledge)
T3 sequence (P08482 1-460): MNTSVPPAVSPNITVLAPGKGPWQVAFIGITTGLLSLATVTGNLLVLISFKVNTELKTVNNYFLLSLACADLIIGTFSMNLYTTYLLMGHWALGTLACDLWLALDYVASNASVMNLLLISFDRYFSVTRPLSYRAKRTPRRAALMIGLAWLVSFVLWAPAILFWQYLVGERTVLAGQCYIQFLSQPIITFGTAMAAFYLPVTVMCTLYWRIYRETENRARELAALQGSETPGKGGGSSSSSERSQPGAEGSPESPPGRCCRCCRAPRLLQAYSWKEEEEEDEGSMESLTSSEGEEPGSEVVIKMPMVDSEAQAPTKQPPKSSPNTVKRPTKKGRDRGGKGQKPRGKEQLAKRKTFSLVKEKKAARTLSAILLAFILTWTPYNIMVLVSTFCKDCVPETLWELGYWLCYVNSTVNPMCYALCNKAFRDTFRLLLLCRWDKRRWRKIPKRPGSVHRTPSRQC
As to the kind of experiment: M1/M2 selectivity in the rat: reduction of McN-A-343 induced rise in blood pressure (M1). The data set is classed as in vivo, rat (male THOM). To be noted: iv, 5 min, i.v., 5 min before 0.3 mg/kg McN-A-343 i.v., read-out: -log ED50, Blood pressure (M1) (converted). The procedure:
The dosage of the substances which reduced either the vagal bradycardia (M2) or the rise in blood pressure (M1) by 50% was determined graphically. For the results see Table II.

The subject of data set [7] is acetylcholine effect on heart rate. The experiment in a line: Inhibition of the effect of acetylcholine on heart rate in guinea pigs. The data set is classed as in vivo. The note with it: Cavia porcellus, iv, 5 min; guinea pig, acetylcholine 10 microgram/kg i.v. and i.a., 5 min after substance; read-out: -log ED50, Heart (heart rate) (converted). The procedure:
as §4

In data set [8] the test system is secretion of saliva. The experiment in a line: Salivation-inhibiting effect in the rat (pilocarpine). The note with it: iv, urethane anaesthesia, pilocarpine 2 mg/kg s.c., read-out: -log ED50, Salivation inhibition (converted). The data set is classed as in vivo, rat (male THOM). As for the experimental part:
The secretion of saliva was initiated by subcutaneous administration of 2 mg/kg of pilocarpine. The saliva was absorbed with blotting paper and the surface area covered was measured every 5 minutes by planimetry. The dosage of the substance which reduced the volume of saliva by 50% was determined graphically. For the results see Table II.

The target in data set [9] is T4, muscarinic receptors (heart) (Rattus norvegicus, UniProt P10980).
T4 construct: The whole heart was cut up with scissors; All the organs were then homogenised in a Potter apparatus; from tissue; host or cells: homogenate of rat whole heart
T4 sequence (P10980 1-466): T1 sequence (P10980 1-466)
The experiment in a line: Binding to muscarinic receptors, 3H-NMS displacement, heart. Further details: species or system rat (male Sprague-Dawley). To be noted: for IC50: 0.3 nM 3H-NMS, 30° C., 45 min, pH 7.4, read-out: IC50 receptor binding test, Heart (H); for potency compared with compound D: Table I, receptor binding, same selectivity maintained. As for the experimental part:
as §1, §2, §3

Data set [10] has as its target T5, histamine-H1 receptor (Rattus norvegicus, UniProt P31390).
T5 construct: whole rat brains were used without the cerebellum; from tissue; host or cells: membranes of whole rat brain without cerebellum
As to the kind of experiment: Binding to the histamine-H1 receptor (3H-pyrilamine). To be noted: 2 nM 3H-pyrilamine, ambient temperature, 60 min, whole rat brain without cerebellum. As for the experimental part: In these tests, whole rat brains were used without the cerebellum. The tissue was homogenised in a phosphate buffer pH 7.5 according to Sorensen using the Ultra-Turrax. The homogenised material was then washed twice and centrifuged at 50,000×g. The pellet was taken up in a dilution, based on the starting tissue, of 1:100. […] The reactions were also ended by vacuum filtration and the radioactivity of the filters was measured. The non-specific binding was determined using mixtures which contained 10 micromolar triprolidine. The results were evaluated as in the studies of binding to the imipramine receptor.

The nature of data set [11]: Water solubility of the monohydrochloride. The data set is classed as physicochemical.

Where only a bound is given, the exact number is not on record here.

Consider six molecules from patent US5006522A, “Condensed diazepinones, processes for preparing them and pharmaceutical compositions containing these compounds” (Karl Thomae GmbH, priority 1988, dated 1991).

T2 sequence (P08483 whole entry): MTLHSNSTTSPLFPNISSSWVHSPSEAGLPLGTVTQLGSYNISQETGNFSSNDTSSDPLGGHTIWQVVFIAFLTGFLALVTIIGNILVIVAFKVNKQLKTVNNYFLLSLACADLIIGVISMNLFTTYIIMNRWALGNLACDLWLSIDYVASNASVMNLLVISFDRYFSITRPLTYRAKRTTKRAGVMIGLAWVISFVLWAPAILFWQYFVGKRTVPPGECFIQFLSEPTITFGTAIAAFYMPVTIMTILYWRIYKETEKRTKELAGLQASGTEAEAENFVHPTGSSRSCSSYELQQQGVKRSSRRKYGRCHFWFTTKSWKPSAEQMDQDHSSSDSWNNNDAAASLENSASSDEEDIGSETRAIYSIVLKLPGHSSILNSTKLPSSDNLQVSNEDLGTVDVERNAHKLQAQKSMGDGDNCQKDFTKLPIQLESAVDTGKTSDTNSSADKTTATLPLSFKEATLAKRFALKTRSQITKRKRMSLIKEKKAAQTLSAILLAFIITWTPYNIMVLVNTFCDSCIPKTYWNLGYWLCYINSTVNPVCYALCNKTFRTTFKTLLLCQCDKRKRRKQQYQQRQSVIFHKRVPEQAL
T5 sequence (P31390 whole entry): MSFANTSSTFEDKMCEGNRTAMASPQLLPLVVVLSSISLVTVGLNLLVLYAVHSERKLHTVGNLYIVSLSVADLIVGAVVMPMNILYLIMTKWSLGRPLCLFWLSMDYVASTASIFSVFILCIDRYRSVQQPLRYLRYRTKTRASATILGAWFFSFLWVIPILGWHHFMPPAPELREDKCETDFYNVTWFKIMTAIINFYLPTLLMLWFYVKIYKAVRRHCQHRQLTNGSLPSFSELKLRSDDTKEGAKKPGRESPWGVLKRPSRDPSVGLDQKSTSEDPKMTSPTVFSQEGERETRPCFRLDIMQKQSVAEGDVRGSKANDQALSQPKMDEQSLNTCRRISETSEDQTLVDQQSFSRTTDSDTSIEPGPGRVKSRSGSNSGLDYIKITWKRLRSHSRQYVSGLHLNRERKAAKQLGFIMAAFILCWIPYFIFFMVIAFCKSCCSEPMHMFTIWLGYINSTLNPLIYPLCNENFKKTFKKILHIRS

Consider `O=C1Nc2cccnc2N(CCCCCCN2CCCCC2)c2ccccc21` [A, 5,11-dihydro-11-[6-(1-piperidinyl)hexyl]-6H-pyrido[2,3-b][1,4]benzodiazepin-6-one], for which the ED50 in data set [1] is 0.011 µmol/kg; in data set [3], 1.29 µmol/kg; in data set [4] it was 0.0851 µmol/kg; in data set [6], 0.295 µmol/kg; in data set [7] it was 0.0661 µmol/kg; in data set [8] it was 0.447 µmol/kg. In addition, the half-maximal inhibitory concentration (IC50) in data set [2] came out at 10 nM; in data set [5], 4 nM; in data set [9], 0.6 nM. For the same molecule, the “Selectivity factor [drawing 24]” value in data set [2] is 16.7. In addition, the “Selectivity factor [drawing 25]” value in [5] came out at 6.7. In data set [9], the “potency compared with compound D” value is “considerably higher potency”.
Regarding `CCN(CC)CC1CCCCN1CCCCN1c2ccccc2C(=O)Nc2cccnc21` (stereo not shown) [B, 11-[4-[2-[(diethylamino)methyl]-1-piperidinyl]butyl]-5,11-dihydro-6H-pyrido[2,3-b][1,4]benzodiazepin-6-one], the ED50 in [1] is 0.0398 µmol/kg; in data set [3] it was > 10 µmol/kg; in [4], 0.646 µmol/kg; in data set [6], 0.676 µmol/kg; in data set [7], 0.468 µmol/kg; in [8], 3.16 µmol/kg. Also, the IC50 in data set [2] was found to be 80 nM; in data set [5], 20 nM; in [10], 9000 nM; in [9], 2 nM. For the same molecule, the “Selectivity factor [drawing 24]” value in data set [2] is listed as 40. In addition, the “Selectivity factor [drawing 25]” value in data set [5] was 10. The “potency compared with compound D” value in data set [9] was “considerably higher potency”.
As for `CCN(CC)CC1CCCCN1CC#CCN1c2ccccc2C(=O)Nc2cccnc21` (stereo not shown) [C, 11-[4-[2-[(diethylamino)methyl]-1-piperidinyl]but-2-ynyl]-5,11-dihydro-6H-pyrido[2,3-b][1,4]benzodiazepin-6-one], the ED50 is 0.0302 µmol/kg in [1]; > 2.29 µmol/kg in data set [3]; 1.58 µmol/kg in data set [4]; 1.1 µmol/kg in data set [6]; 0.245 µmol/kg in data set [7]; 7.59 µmol/kg in [8]. In addition, the IC50 was determined as 700 nM in data set [2], 200 nM in data set [5] and 18 nM in data set [9]. Also, the “Selectivity factor [drawing 24]” value in [2] is reported as 38.9. Also, the “Selectivity factor [drawing 25]” value in data set [5] was determined as 11.1. Besides, in data set [9], the “potency compared with compound D” value was “considerably higher potency”.
On to `CCN(CC)CC1CCCCN1CC(=O)N1c2ccccc2C(=O)Nc2cccnc21` (stereo not shown) [D, 11-[[2-[(diethylamino)methyl]-1-piperidinyl]acetyl]-5,11-dihydro-6H-pyrido[2,3-b][1,4]benzodiazepin-6-one, reference compound], for which, in data set [8], the ED50 is 10 µmol/kg.
On to `Cl.O=C1Nc2ccccc2N(CCCCCCN2CCCCCC2)c2ccccc21` [Example 16, 5,10-Dihydro-5-[6-(hexahydro-1H-1-azepinyl)hexyl]-11H-dibenzo[b,e][1,4]diazepin-11-one hydrochloride], for which, in data set [11], the “water solubility (monohydrochloride)” value was “sparingly soluble in water”.
With `CN1[C@@H]2CC[C@H]1C[C@@H](OC(=O)C(CO)c1ccccc1)C2` (stereo partly shown) [F, atropine, reference compound], the ED50 in data set [7] is 0.02 µmol/kg.

What is called ED50 is the dose at which the effect has come halfway, by size or by number of responders. Usually IC50 stands for the midpoint of a concentration-inhibition curve.
